The values that follow come from EP4772500A1, “NOVEL ISOXAZOLE COMPOUND AS TM4SF5-SPECIFIC INHIBITOR AND USE THEREOF” (Seoul National University R&DB Foundation, priority 2023, dated 2025).

For this experiment, the system named is SNU761-EV cells. Nature of the experiment: Western blotting of SLAMF7 expression, control SNU761 cells. As to conditions: SNU761-EV (FIG. 13d). Format: cell-based, human. As for the experimental part: Cell extracts were obtained from cells grown to a density of 70-80% without any treatment, or from cells treated with vehicle DMSO or drugs at the given concentrations for 24 hours. For the extract of hepatocytes or liver cancer cells, a lysis buffer (150 mM NaCl, 1% NP-40, 50 mM Tris-HCl, 0.25% sodium deoxycholate, pH 7.4) including a protease inhibitor cocktail (GenDEPOT) was used. In addition, after washing animal liver tissue twice with PBS, SDS, Na3VO4, and protease inhibitor cocktails (GenDEPOT) were added to a lysis buffer [50 mM Tris-HCl, pH 7.4, 1% NP40, 0.25% sodium deoxycholate, 150 mM NaCl, 1 mM EDTA (based on 500 ml)], followed by treatment at 4°C for 15 minutes. […] After quantification using BCA reagent (Thermo Scientific), a 4 × sample buffer [100% glycerol 4 ml, Tris-HCl, pH 6.8, 2.4 ml, SDS 0.8 g, Bromophenol blue 4 mg, betamercaptoethanol 0.4 ml, H2O 3.1 ml (based on 10 ml)] was added, followed by boiling at 100°C for 5 minutes. […]
After 24 hours, vehicle DMSO, drug ST-1-025, or ST-5-002 was treated at the given concentrations. […] (f) After treating NK92-EV or NK92-TM4SF5 cells with DMSO or drugs ST-2-001 (1 nM), ST-3-005 (10 nM or 1 µM), ST-5-001, or ST-5-002 (100 nM or 1 µM) for 24 hours, the expression of SLAMF7 expressed on the cell surface was analyzed through immunostaining using flow cytometry. […]

Take `Cc1ccc(C(=O)Nc2ccc(-c3cc(-c4ccc(O)cc4)no3)cc2)cc1` [ST-5-002, N-(4-(3-(4-hydroxyphenyl)isoxazole-5-yl)phenyl)-4-methylbenzamide]: the “expression of SLAMF7” value is recorded as “lowered”.
